Patent US5753715A, “2-disubstituted cyclohexenyl and cyclohexyl antimicrobial agents” (Ortho Pharmaceutical Corporation, priority 1995, dated 1998)
Converted amounts (≈) assume the structure as drawn.

Columns and labels:
Kinase A and SpoOF = target: T1, Kinase A and SpoOF (Bacillus subtilis, UniProt P16497); test: Autophosphorylation of Kinase A and Transphosphorylation of SPoOF Assay; assay type: biochemical; conditions: inhibition of Kinase A autophosphorylation / SpoOF transphosphorylation, [32P]ATP, gel, phosphoimager
T1 sequence (P16497 1-606): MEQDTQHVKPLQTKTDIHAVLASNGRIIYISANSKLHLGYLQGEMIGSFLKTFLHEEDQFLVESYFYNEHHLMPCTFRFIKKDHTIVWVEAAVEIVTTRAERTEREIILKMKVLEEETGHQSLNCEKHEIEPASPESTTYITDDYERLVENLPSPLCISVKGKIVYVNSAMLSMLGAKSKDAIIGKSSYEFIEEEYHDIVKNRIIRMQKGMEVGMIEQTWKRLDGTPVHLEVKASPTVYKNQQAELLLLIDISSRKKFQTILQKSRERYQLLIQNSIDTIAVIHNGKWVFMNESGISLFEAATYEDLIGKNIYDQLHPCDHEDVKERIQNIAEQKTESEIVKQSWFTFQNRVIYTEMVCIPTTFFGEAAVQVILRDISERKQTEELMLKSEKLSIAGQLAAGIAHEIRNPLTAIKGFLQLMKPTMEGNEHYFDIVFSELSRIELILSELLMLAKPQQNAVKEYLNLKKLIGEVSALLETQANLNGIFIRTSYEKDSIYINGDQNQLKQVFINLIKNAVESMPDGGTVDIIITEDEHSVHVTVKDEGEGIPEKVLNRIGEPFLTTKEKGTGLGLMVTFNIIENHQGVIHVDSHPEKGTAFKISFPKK

S. aureus ATCC 29213 = test: MIC, microdilution broth method (NCCLS); assay type: cell-based; conditions: cation supplemented Mueller Hinton broth, 35° C., 16-20 hours; unit assumed
Protocol: (§1) The in vitro antimicrobial spectrum of the compounds of the present invention were determined by the microdilution broth method following the test method from the National Committee for […] (NCCLS ). The method is described in the NCCLS Document M7-A2, Vol. 10, No.8 "Methods for Dilution Antimicrobial Susceptibility Test for Bacteria that Grow Aerobically--Second Edition".
(§2) In this method two fold serial dilutions of drug in cation supplemented Mueller Hinton broth are added to wells in microdilution trays. The test organisms are prepared by adjusting the turbidity of actively growing broth cultures so that the final concentration of test organism after it is added to the wells is approximately 5×10^4 colony forming units per well delivered by the Steers replicating device.
(§3) Following inoculation of the microdilution trays, the trays are incubated at 35° C. for 16-20 hours and then read. […] The amount of growth in the wells containing the test compound is compared with the amount of growth in the growth-control wells used in each tray.

A. niger 10578 = test: MIC, microdilution broth method (NCCLS); assay type: cell-based; conditions: cation supplemented Mueller Hinton broth, 35° C., 16-20 hours; unit assumed
Protocol: as §1, §2, §3

MRSA oc667 = test: MIC, microdilution broth method (NCCLS); assay type: cell-based; conditions: cation supplemented Mueller Hinton broth, 35° C., 16-20 hours; unit assumed
Protocol: as §1, §2, §3

MRSA oc2089 = test: MIC, microdilution broth method (NCCLS); assay type: cell-based; conditions: cation supplemented Mueller Hinton broth, 35° C., 16-20 hours; unit assumed
Protocol: as §1, §2, §3

E. coli oc2605 = test: MIC, microdilution broth method (NCCLS); assay type: cell-based; conditions: cation supplemented Mueller Hinton broth, 35° C., 16-20 hours; unit assumed
Protocol: as §1, §2, §3

K. pneum. oc1943 = test: MIC, microdilution broth method (NCCLS); assay type: cell-based; conditions: cation supplemented Mueller Hinton broth, 35° C., 16-20 hours; unit assumed
Protocol: as §1, §2, §3

E. faecalis oc3041 = test: MIC, microdilution broth method (NCCLS); assay type: cell-based; conditions: cation supplemented Mueller Hinton broth, 35° C., 16-20 hours; unit assumed
Protocol: as §1, §2, §3

Ps. aerug. oc27853 = test: MIC, microdilution broth method (NCCLS); assay type: cell-based; conditions: cation supplemented Mueller Hinton broth, 35° C., 16-20 hours; unit assumed
Protocol: as §1, §2, §3

E. faecalis ACTCC 29212 = test: MIC, microdilution broth method (NCCLS); assay type: cell-based; conditions: cation supplemented Mueller Hinton broth, 35° C., 16-20 hours; unit assumed
Protocol: as §1, §2, §3

Ps. aerug. oc161 = test: MIC, microdilution broth method (NCCLS); assay type: cell-based; conditions: cation supplemented Mueller Hinton broth, 35° C., 16-20 hours; unit assumed
Protocol: as §1, §2, §3

E. faecium oc2993 = test: MIC, microdilution broth method (NCCLS); assay type: cell-based; conditions: cation supplemented Mueller Hinton broth, 35° C., 16-20 hours; unit assumed
Protocol: as §1, §2, §3

E. coli oc2530 = test: MIC, microdilution broth method (NCCLS); assay type: cell-based; conditions: cation supplemented Mueller Hinton broth, 35° C., 16-20 hours; unit assumed
Protocol: as §1, §2, §3

C. albicans 10231 = test: MIC, microdilution broth method (NCCLS); assay type: cell-based; conditions: cation supplemented Mueller Hinton broth, 35° C., 16-20 hours; unit assumed
Protocol: as §1, §2, §3

C. tropicalis = test: MIC, microdilution broth method (NCCLS); assay type: cell-based; conditions: cation supplemented Mueller Hinton broth, 35° C., 16-20 hours; unit assumed
Protocol: as §1, §2, §3

S. epi oc2603 = test: MIC, microdilution broth method (NCCLS); assay type: cell-based; set-up: unit not given here; conditions: cation supplemented Mueller Hinton broth, 35° C., 16-20 hours
Protocol: as §1, §2, §3

Compound	IC50 (Kinase A and SpoOF) [mM]	IC min (Kinase A and SpoOF) [mM]	also measured
CC(C)C1(CCOc2ccc(CCN)cc2)C=CCCC1 (stereo not drawn) [Compound 22]	94.7	31.25	
OCCNCCCc1ccc(OCCC2(c3ccc(F)cc3)C=CCCC2)cc1 (stereo not drawn) [Compound 25]	200	125	
CC(C)NCCc1ccc(OCCC2(CCCc3ccccc3)CCCCC2)cc1 [Compound 14]		500	
CC1COc2c(N3CCN(C)CC3)c(F)cc3c(=O)c(C(=O)O)cn1c23 (stereo not drawn) [OFX, reference compound]			MIC S. aureus ATCC 29213 (S. aureus ATCC 29213): 0.5 µg/mL (≈ 1.38 µM); MIC A. niger 10578 (A. niger 10578): > 128 µg/mL; MIC MRSA oc667 (MRSA oc667): 0.5 µg/mL (≈ 1.38 µM); MIC MRSA oc2089 (MRSA oc2089): 4 µg/mL (≈ 11.1 µM); MIC E. coli oc2605 (E. coli oc2605): ≤ 0.12 µg/mL; MIC K. pneum. oc1943 (K. pneum. oc1943): 0.25 µg/mL (≈ 0.692 µM); MIC E. faecalis oc3041 (E. faecalis oc3041): 2 µg/mL (≈ 5.53 µM); MIC Ps. aerug. oc27853 (Ps. aerug. oc27853): 8 µg/mL (≈ 22.1 µM); MIC E. faecalis ACTCC 29212 (E. faecalis ACTCC 29212): 2 µg/mL (≈ 5.53 µM); MIC Ps. aerug. oc161 (Ps. aerug. oc161): 2 µg/mL (≈ 5.53 µM); MIC E. faecium oc2993 (E. faecium oc2993): 4 µg/mL (≈ 11.1 µM); MIC E. coli oc2530 (E. coli oc2530): ≤ 0.12 µg/mL; MIC C. albicans 10231 (C. albicans 10231): > 128 µg/mL; MIC C. tropicalis (C. tropicalis): > 128 µg/mL; MIC S. epi oc2603 (S. epi oc2603): 2
COc1ccc(CC2(CCOc3ccc(CCCNCCN4CCCC4)cc3)C=CCCC2)cc1 (stereo not drawn) [Compound 44]	133	62.5	
CCCCC1(CCOc2ccc(CCCNC)cc2)C=CCCC1 (stereo not drawn) [Compound 32]	164	125	
CNCCCc1cnc(SCCC2(Cc3ccccc3)C=CCCC2)nc1 (stereo not drawn) [Compound 8]	92.3		
NCc1ccccc1OCCC1(Cc2ccccc2Cl)C=CCCC1 (stereo not drawn) [Compound 55]	91.3		
NCCc1ccc(OCCC2(Cc3cccc(Cl)c3)C=CCCC2)cc1 (stereo not drawn) [Compound 39]	61.5	31.25	
CNCCc1ccc(OCCCC2(Cc3ccccc3)C=CCCC2)cc1 (stereo not drawn) [Compound 30]	145	125	

Further lines, with some results ahead:

IC50 (Kinase A and SpoOF) [mM]	IC min (Kinase A and SpoOF) [mM]	Compound	also measured
122		CN(C)CCCc1ccc(OCCC2(Cc3ccccc3)C=CCCC2)cc1 (stereo not drawn) [Compound 20]	
35.8		N=C(N)NCc1ccc(OCCC2(Cc3cccc(Cl)c3)C=CCCC2)cc1 (stereo not drawn) [Compound 6]	
	> 1000	Fc1ccc(C2(CCOc3ccc(CCCNCc4ccccc4)cc3)C=CCCC2)cc1 (stereo not drawn) [Compound 28]	
210	62.5	C1=CC(CCOc2ccc(CCNCCN3CCCC3)cc2)(Cc2ccccc2)CCC1 (stereo not drawn) [Compound 1]	
	500	CNCCCc1cnc(NCCC2(Cc3ccccc3)C=CCCC2)nc1 (stereo not drawn) [Compound 48]	
257	125	CCNCCc1ccc(NCCC2(Cc3ccccc3)C=CCCC2)cc1 (stereo not drawn) [Compound 10]	
139	62.5	CNCCCc1ccc(OCCC2(Cc3ccc(OC)cc3)C=CCCC2)cc1 (stereo not drawn) [Compound 42]	
353	125	NCCCCc1ccc(OCCC2(Cc3ccccc3)C=CCCC2)cc1 (stereo not drawn) [Compound 11]	
46.8	31.25	Clc1cccc(CC2(CCOc3ccc(CCNCCN4CCCC4)cc3)C=CCCC2)c1 (stereo not drawn) [Compound 40]	
330		NC(=O)c1ccc(OCCC2(Cc3cccc(Cl)c3)C=CCCC2)cc1 (stereo not drawn) [Compound 7]	
432	125	CNCCCc1ccc(OCCC2(CCO)C=CCCC2)cc1 (stereo not drawn) [Compound 15]	
	500	CNCCc1ccccc1OCCC1(Cc2ccccc2)C=CCCC1 (stereo not drawn) [Compound 36]	
446	250	COc1cc(CN)ccc1OCCC1(Cc2ccccc2)C=CCCC1 (stereo not drawn) [Compound 9]	
18.5	15.6	NCc1ccc(OCCC2(Cc3cccc(Cl)c3)C=CCCC2)cc1 (stereo not drawn) [Compound 5]	
17.9	15.6	N=C(N)NCCc1ccc(OCCC2(Cc3cccc(Cl)c3)C=CCCC2)cc1 (stereo not drawn) [Compound 45]	
